Experimental data: patent US11708318B2, “Polymorphic forms of RAD1901-2HCL” (Radius Pharmaceuticals, Inc., priority 2017, dated 2023)
Entries after “also recorded” stand apart in the source; their conditions may differ. Where two headings read alike, the source gives them in different places.

Legend:
[1] = Variable humidity XRPD (VH-XRPD); assay type: physicochemical; conditions: ~95% RH, 24 hr
Method: Samples run under non-ambient conditions were prepared by gently packing into a cavity, cut into a silicon wafer to obtain a flat surface and mounted onto a humidity stage with an Ansyco controller and humidity sensor positioned directly next to the sample holder. The data were collected at 298.15 K with water temperature of 35.0° C., in an angular range of 3 to 31° 2θ, with a step size of 0.025° 2θ, a collection time of 2.0 sec/step, and a collection time at each % RH was 41 min 28 sec. X-Ray Powder Diffraction (XRPD) patterns were collected at variable humidity values from 0 to 95% RH, based upon the humidity behavior of each compound observed during GVS experiments (described herein). For each Variable Humidity X-Ray Powder Diffraction (VH-XRPD) experiment performed, the % RH values selected are provided alongside the relevant experimental result. Full tables of detailing the % RH value at each collection point and the associated delay time at each value are provided in Tables 10-12. To fully characterize the polymorphic behavior of Samples 1 and 2 at variable humidity, and to collect reference XRPD patterns for the ‘pure’ anhydrous Form 1 and Form 2 material, and ‘pure’ hydrated Form 3 material, Variable Humidity (VH) XRPD experiments were conducted on Samples 1 and 2. Initially, VH-XRPD experiments were conducted using Sample 1, and XRPD diffractograms were collected at selected humidity values, in line with those collected during GVS experiments (see FIGS. 6E-6F). XRPD diffractograms were collected initially at ambient RH, then collected over 24 hours at ˜95% RH and finally collected during desorption steps to 0% RH and over 10 hours at 0% RH (see FIG. 4C). […]

[2] = Solubility assessment of Sample 1 (majorly Form 1) in 24 solvent systems; assay type: physicochemical; conditions: organic solvent or mixture
Method: Solubility assessment was carried out on the Sample 1 of RAD1901-2HCl (majorly Form 1 shown by XRPD) in 24 solvent systems in HPLC vials (sample IDs: A1 to A24). RAD1901-2HCl (25 mg) was treated with increasing volumes of solvent until the material fully dissolved or until a maximum of 60 vol had been used (Table 13).
After each addition of solvent, the system was stirred for 5 to 10 minutes at 25° C., then shaken at 50° C. for 5 to 10 minutes, and observations made. Samples were allowed to stand at room temperature for 5 min before the addition of a new aliquot of solvent. After the assessment was completed, the suspensions obtained were matured (maturation) and the clear solutions were cooled (cooling) and slowly evaporated (evaporation) as described below. All solids recovered from maturation, cooling and evaporation experiments were analyzed by high resolution XRPD.

Compound: CCNCCc1ccc(CN(CC)c2cc(OC)ccc2[C@@H]2CCc3cc(O)ccc3C2)cc1.Cl.Cl [Sample 1]
- VH-XRPD at ~95% RH over 24 hr [1]: slow conversion towards the hydrated state; also recorded: Form 3 over 24
- solubility ([2]; 1,2-dimethoxyethane, 50 °C, thermodynamic from solid, 1,2-dimethoxyethane, sample ID A16, read-out: Solubility assessment 10 vol.): < 100 mg/mL
- solubility ([2]; 1,2-dimethoxyethane, 50 °C, thermodynamic from solid, 1,2-dimethoxyethane, sample ID A16, read-out: Solubility assessment 20 vol.): < 50 mg/mL
- solubility ([2]; 1,2-dimethoxyethane, 50 °C, thermodynamic from solid, 1,2-dimethoxyethane, sample ID A16, read-out: Solubility assessment 40 vol.): < 25 mg/mL
- solubility ([2]; 1,2-dimethoxyethane, 50 °C, thermodynamic from solid, 1,2-dimethoxyethane, sample ID A16, read-out: Solubility assessment 60 vol.): < 16.7 mg/mL
- solubility ([2]; 1,4-dioxane, 50 °C, thermodynamic from solid, 1,4-Dioxane, sample ID A14, read-out: Solubility assessment 10 vol.): < 100 mg/mL
- solubility ([2]; 1,4-dioxane, 50 °C, thermodynamic from solid, 1,4-Dioxane, sample ID A14, read-out: Solubility assessment 20 vol.): < 50 mg/mL
- solubility ([2]; 1,4-dioxane, 50 °C, thermodynamic from solid, 1,4-Dioxane, sample ID A14, read-out: Solubility assessment 40 vol.): < 25 mg/mL
- solubility ([2]; 1,4-dioxane, 50 °C, thermodynamic from solid, 1,4-Dioxane, sample ID A14, read-out: Solubility assessment 60 vol.): < 16.7 mg/mL
- solubility ([2]; 1-propanol, 50 °C, thermodynamic from solid, 1-propanol, sample ID A8, read-out: Solubility assessment 10 vol.): < 100 mg/mL
- solubility ([2]; 1-propanol, 50 °C, thermodynamic from solid, 1-propanol, sample ID A8, read-out: Solubility assessment 20 vol.): < 50 mg/mL
- solubility ([2]; 1-propanol, 50 °C, thermodynamic from solid, 1-propanol, sample ID A8, read-out: Solubility assessment 40 vol.): < 25 mg/mL
- solubility ([2]; 1-propanol, 50 °C, thermodynamic from solid, 1-propanol, sample ID A8, read-out: Solubility assessment 60 vol.): < 16.7 mg/mL
- solubility ([2]; 2-propanol, 50 °C, thermodynamic from solid, 2-propanol, sample ID A6, read-out: Solubility assessment 10 vol.): < 100 mg/mL
- solubility ([2]; 2-propanol, 50 °C, thermodynamic from solid, 2-propanol, sample ID A6, read-out: Solubility assessment 20 vol.): < 50 mg/mL
- solubility ([2]; 2-propanol, 50 °C, thermodynamic from solid, 2-propanol, sample ID A6, read-out: Solubility assessment 40 vol.): < 25 mg/mL
- solubility ([2]; 2-propanol, 50 °C, thermodynamic from solid, 2-propanol, sample ID A6, read-out: Solubility assessment 60 vol.): < 16.7 mg/mL
- solubility ([2]; 10% water/EtOH, 50 °C, thermodynamic from solid, 10% water/EtOH, sample ID A22, read-out: Solubility assessment 10 vol.): 50 to 100 mg/mL
- solubility ([2]; 10% water/EtOH, 50 °C, thermodynamic from solid, 10% water/EtOH, sample ID A22, read-out: Solubility assessment 20 vol.): 50 to 100 mg/mL
- solubility ([2]; 10% water/IPA, 50 °C, thermodynamic from solid, 10% water/IPA, sample ID A23, read-out: Solubility assessment 10 vol.): < 100 mg/mL
- solubility ([2]; 10% water/IPA, 50 °C, thermodynamic from solid, 10% water/IPA, sample ID A23, read-out: Solubility assessment 20 vol.): < 50 mg/mL
- solubility ([2]; 10% water/IPA, 50 °C, thermodynamic from solid, 10% water/IPA, sample ID A23, read-out: Solubility assessment 40 vol.): 16.7 to 25 mg/mL
- solubility ([2]; 10% water/IPA, 50 °C, thermodynamic from solid, 10% water/IPA, sample ID A23, read-out: Solubility assessment 60 vol.): 16.7 to 25 mg/mL
- solubility ([2]; 10% water/THF, 50 °C, thermodynamic from solid, 10% water/THF, sample ID A24, read-out: Solubility assessment 10 vol.): < 100 mg/mL
- solubility ([2]; 10% water/THF, 50 °C, thermodynamic from solid, 10% water/THF, sample ID A24, read-out: Solubility assessment 20 vol.): < 50 mg/mL
- solubility ([2]; 10% water/THF, 50 °C, thermodynamic from solid, 10% water/THF, sample ID A24, read-out: Solubility assessment 40 vol.): 16.7 to 25 mg/mL
- solubility ([2]; 10% water/THF, 50 °C, thermodynamic from solid, 10% water/THF, sample ID A24, read-out: Solubility assessment 60 vol.): 16.7 to 25 mg/mL
- solubility ([2]; MEK, 50 °C, thermodynamic from solid, MEK, sample ID A7, read-out: Solubility assessment 10 vol.): < 100 mg/mL
- solubility ([2]; MEK, 50 °C, thermodynamic from solid, MEK, sample ID A7, read-out: Solubility assessment 20 vol.): < 50 mg/mL
- solubility ([2]; MEK, 50 °C, thermodynamic from solid, MEK, sample ID A7, read-out: Solubility assessment 40 vol.): < 25 mg/mL
- solubility ([2]; MEK, thermodynamic from solid, MEK, sample ID A7, read-out: Solubility assessment 60 vol.): < 16.7 mg/mL
- solubility ([2]; MIBK, 50 °C, thermodynamic from solid, MIBK, sample ID A5, read-out: Solubility assessment 10 vol.): < 100 mg/mL
- solubility ([2]; MIBK, 50 °C, thermodynamic from solid, MIBK, sample ID A5, read-out: Solubility assessment 20 vol.): < 50 mg/mL
- solubility ([2]; MIBK, 50 °C, thermodynamic from solid, MIBK, sample ID A5, read-out: Solubility assessment 40 vol.): < 25 mg/mL
- solubility ([2]; MIBK, thermodynamic from solid, MIBK, sample ID A5, read-out: Solubility assessment 60 vol.): < 16.7 mg/mL
- solubility ([2]; TBME, 50 °C, thermodynamic from solid, TBME, sample ID A13, read-out: Solubility assessment 10 vol.): < 100 mg/mL
- solubility ([2]; TBME, 50 °C, thermodynamic from solid, TBME, sample ID A13, read-out: Solubility assessment 20 vol.): < 50 mg/mL
- solubility ([2]; TBME, 50 °C, thermodynamic from solid, TBME, sample ID A13, read-out: Solubility assessment 40 vol.): < 25 mg/mL
- solubility ([2]; TBME, thermodynamic from solid, TBME, sample ID A13, read-out: Solubility assessment 60 vol.): < 16.7 mg/mL
- solubility ([2]; acetone, 50 °C, thermodynamic from solid, Acetone, sample ID A9, read-out: Solubility assessment 10 vol.): < 100 mg/mL
- solubility ([2]; acetone, 50 °C, thermodynamic from solid, Acetone, sample ID A9, read-out: Solubility assessment 20 vol.): < 50 mg/mL
- solubility ([2]; acetone, 50 °C, thermodynamic from solid, Acetone, sample ID A9, read-out: Solubility assessment 40 vol.): < 25 mg/mL
- solubility ([2]; acetone, 50 °C, thermodynamic from solid, Acetone, sample ID A9, read-out: Solubility assessment 60 vol.): < 16.7 mg/mL
- solubility ([2]; acetonitrile, 50 °C, thermodynamic from solid, Acetonitrile, sample ID A19, read-out: Solubility assessment 10 vol.): < 100 mg/mL
- solubility ([2]; acetonitrile, 50 °C, thermodynamic from solid, Acetonitrile, sample ID A19, read-out: Solubility assessment 20 vol.): < 50 mg/mL
